Activity calls are given as the source filed them. The rule behind the calls is not given here.
Experiments:
Salmonidae = test: Binding affinity to salmon sperm DNA assessed as DNA intercalation by SYBR-green dye based fluorescence assay
Homo sapiens = species on record: Homo sapiens; settings: 10 uM
Description: Inhibition of RPA (unknown origin) at 10 uM by EMSA assay

[1] = biological target: DNA repair protein complementing XP-A cells (Homo sapiens, UniProt P23025); test: Inhibition of full length human XPA expressed in Sf9 cells assessed as reduction in interaction of XPA with 32P-labeled cisplatin-modified dsDNA by EMSA
DNA repair protein complementing XP-A cells, sequence (P23025 whole entry): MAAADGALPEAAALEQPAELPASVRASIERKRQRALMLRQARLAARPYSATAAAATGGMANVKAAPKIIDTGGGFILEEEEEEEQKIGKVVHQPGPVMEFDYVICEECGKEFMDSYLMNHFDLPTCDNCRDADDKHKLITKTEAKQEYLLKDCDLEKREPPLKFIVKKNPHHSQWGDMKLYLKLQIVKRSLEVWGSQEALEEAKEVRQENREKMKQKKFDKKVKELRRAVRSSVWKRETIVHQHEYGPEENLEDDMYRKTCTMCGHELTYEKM

SMILES | Activity (Salmonidae) | inhibition (Homo sapiens) | IC50 [1]
CC1=NN(c2cccc(C(=O)O)c2)C(=O)/C1=C\c1ccc(-c2ccc(Cl)c(C(=O)NCC3CC3)c2)o1 | inactive |  | 
CC1=NN(c2ccc(C(=O)O)cc2)C(=O)/C1=C\c1ccc(-c2ccc(Cl)c(C(=O)NCC3CC3)c2)o1 | inactive | inactive | 
CC1=NN(c2ccc(Cl)c(C(=O)O)c2)C(=O)/C1=C\c1ccc(-c2ccc(Cl)c(C(=O)OCc3ccccc3)c2)o1 | Active | inactive | 
CC1=NN(c2ccc(C(=O)O)cc2)C(=O)/C1=C\c1ccc(-c2ccc(C(=O)NCc3ccc(F)cc3)cc2)o1 | inactive |  | 
CC1=NN(c2ccc(C(=O)O)cc2)C(=O)/C1=C\c1ccc(-c2ccc(Cl)c(C(=O)NCc3ccc(F)cc3)c2)o1 | inactive | inactive | 
CC1=NN(c2cccc(C(=O)O)c2)C(=O)/C1=C\c1ccc(-c2ccc(C(=O)NCc3ccc(F)cc3)cc2)o1 |  |  | > 50 µM
CC1=NN(c2ccc(Cl)c(C(=O)O)c2)C(=O)/C1=C\c1ccc(-c2ccc(Cl)c(C(=O)OCc3ccccc3Cl)c2)o1 | Active | inactive | 
CC1=NN(c2cccc(C(=O)NCC3CC3)c2)C(=O)/C1=C\c1ccc(-c2ccc(Cl)c(C(=O)NCC3CC3)c2)o1 |  |  | > 50 µM
CC1=NN(c2cccc(C(=O)O)c2)C(=O)/C1=C\c1ccc(-c2ccc(C(=O)NCC3CC3)cc2)o1 |  |  | > 50 µM
CC1=NN(c2cccc(C(=O)O)c2)C(=O)/C1=C\c1ccc(-c2ccc(Cl)c(C(=O)NCc3ccc(F)cc3)c2)o1 | inactive |  | 
CCOC(=O)c1cccc(N2N=C(C)/C(=C/c3ccc(-c4ccc(Cl)c(C(=O)NCc5ccc(F)cc5)c4)o3)C2=O)c1 |  |  | > 25 µM

From ChEMBL document CHEMBL4017531, “Design and Structure-Guided Development of Novel Inhibitors of the Xeroderma Pigmentosum Group A (XPA) Protein-DNA Interaction” (J Med Chem, 2017)
